# Experimental data from patent US20230414616A1, “LINE-1 INHIBITORS TO TREAT DISEASE” (Transposon Therapeutics, Inc., priority 2020, published 2023).
# System: human LINE-1
# Experiment: Human LINE-1 retrotransposition assay (HeLa cell-based dual-luciferase reporter)
# Settings: HeLa cells, reporter plasmid pYX017, 72 h incubation, Firefly/Renilla
# Protocol: Representative Compounds of the Disclosure were tested for inhibition of retrotransposition activity of human LINE-1 in HeLa cells according to the following procedure.
# HeLa cervical cancer cells were cultivated at 37° C. in a humidified 5% CO2 incubator in Dulbecco's Modified Eagle's Medium (DMEM)—high glucose, with 4500 mg/L glucose, L-glutamine, sodium pyruvate and sodium bicarbonate (Sigma), supplemented with 10% of heat inactivated fetal bovine serum (Thermo Fisher).
# Assays were performed using reporter plasmid pYX017 as described (Xie, et al., 2011) with several modifications. The reporter assay was performed in 96-well white optical bottom plates. HeLa cells were seeded in wells 24 h prior to transfection and compound treatment so that cells were approximately 30% confluent on the day of transfection. Different cell plating densities were tested and a density of 2×10^3 cells was determined to be optimal.
# Compounds were resuspended in DMSO. Serial dilutions (1:3) were prepared in DMSO. Medium containing different concentrations of the compounds were prepared by adding 2 μl of the compound dilution to 1 ml of the culture medium. The final concentration of DMSO in the medium was 0.2%.
# FuGENE® HD transfection reagent (Promega, E2311, Lot 382574 and Lot 397842) was used to transfect the plasmids into the cells. […] Different ratios of transfection reagent to DNA were tested and a ratio of 3:1 was determined to be optimal. […] A 72 h incubation time was determined to be optimal.
# Luciferase reporter activity was quantified with the Dual-Luciferase® Reporter Assay System (Promega) according to manufacturer's instructions for multiwell plates except that cells were lysed directly on the multiwell plate with 30 μl of the passive lysis buffer (PLB) for 20 min at room temperature, with gentle shaking to ensure complete cell lysis.
# Firefly and Renilla luciferase signals were measured using a SpectraMax i3x Multi-Mode Microplate Reader. […] Relative L1 activity is calculated as Firefly/Renilla *1000 or Firefly/Renilla *10,000. […]
"IC50 (HeLa, 72 h) [nM]",Compound,IC50 [nM]
830,C#C[C@]1(CO)O[C@@H](n2cc(F)c(=O)[nH]c2=O)C[C@@H]1O [Compound 15],
2.6,CC[C@]1(CO)O[C@@H](n2cnc3c(O)nc(N)nc32)C[C@@H]1O [Compound 27],
,"CC(C)OC(=O)[C@H](C)N[P@](=O)(CO[C@H](C)Cn1cnc2c(N)ncnc21)Oc1ccccc1 [tenofovir alafenamide, reference compound]",10
